A short description of data set [1]: method code SF-AS, from DOI: 10.1016/s0969-8051(99)00063-3, PMID: 10628565. Conditions: pH 7.0.
Data set [2] in a line: method code SF-RC, from DOI: 10.1021/jm00238a003, PMID: 1120999. Conditions: pH 7.0.
Data set [3] can be described thus: method code SF-GLC, from DOI: 10.1016/s0021-9673(00)91779-5. Conditions: pH 7.0.
Data set [4] in a line: method code SF-HPLC, from DOI: 10.1002/ps.2780280108.
Experiment in data set [5]: not given
This is another data set of the same source.

Data set [6] is described as follows: method code SF-AS, from PMID: 7912440.
Data set [7] can be described thus: method code SF-AS, from DOI: 10.1021/jm00040a014, PMID: 8035429. The settings on record: pH 7.4.
A short description of data set [8]: method code SF, from DOI: 10.1002/jps.2600830715, PMID: 7965680.
Experiment in data set [9]: not given
This is another data set of the same source.

Experiment in data set [10]: not given
The source holds these as a separate data set.

Data set [11] is described as follows: method code SF-AS, from DOI: 10.1002/pauz.19770060602.
Data set [12] is described as follows: method code SF-AS, from DOI: 10.1016/s0021-9673(00)91570-x. Conditions: pH 3.4.
Experiment in data set [13]: not given
The source holds these as a separate data set.

Experiment in data set [14]: not given
The source holds these as a separate data set.

Data set [15] can be described thus: method code SF, from Wang, L.; Li, H.; Wang, X.; Zhang, Z. (1993). Determination of aqueous solubilities and partition coefficients of substitutive ethylketone congeners by generator column. Huanjing Huaxue, 12(2)151-154.
A short description of data set [16]: method code SF-ILT, from DOI: 10.1002/ardp.19763091008, PMID: 1008678.
Experiment in data set [17]: not given
This is another data set of the same source.

Experiment in data set [18]: not given
This is another data set of the same source.

Data set [19] in a line: method code SF-HPLC, from DOI: 10.1023/a:1013643013244, PMID: 11837695. The settings on record: pH 6.4.
Data set [20] can be described thus: method code SF, from DOI: 10.1584/jpestics.12.445.
Experiment in data set [21]: not given
The source holds these as a separate data set.

A short description of data set [22]: method code SF-AS, from DOI: 10.1002/qsar.19830020405. Conditions: pH 2.0.
Experiment in data set [23]: not given
This is another data set of the same source.

A short description of data set [24]: method code SF-AS, from DOI: 10.1213/00000539-199008000-00008, PMID: 2375517.
The nature of data set [25]: method code SF-HPLC, from DOI: 10.1016/0378-5173(86)90195-x. Conditions: pH 7.4.
Experiment in data set [26]: not given
The source holds these as a separate data set.

Data set [27] in a line: method code SF, from DOI: 10.1021/jm00140a005, PMID: 7035668. Conditions: pH 12.0.
A short description of data set [28]: method code SF-HPLC, from PMID: 1854437. The settings on record: pH 7.4.
Data set [29] in a line: method code SF-AS, from DOI: 10.1016/0378-5173(86)90115-8.
Data set [30] can be described thus: method code SF-RC, from DOI: 10.1021/jf60186a044, PMID: 4688915.
Data set [31] in a line: method code SF-AS, from DOI: 10.1002/jps.2600611027, PMID: 5072421.

Take `O=c1[nH]c(Nc2ccccc2)nc2c1ncn2CC(O)CSCCO` (centres undefined): in data set [1], the logD – broadly, the decadic logarithm of the distribution of all forms, ionised or not, between an organic phase and buffer at a given pH – came to 0.83.

Regarding `O=c1[nH]c(Nc2ccccc2)nc2c1ncn2CC(O)CO` (centres undefined), the logD in data set [1] was found to be 0.4.

As to `Nc1ccn([C@@H]2O[C@H](COC(=O)c3cccnc3)[C@@H](O)[C@@H]2O)c(=O)n1`, the logD in data set [2] is -0.6.

For `CCOP(=S)(Oc1ccc(C)cc1)c1ccccc1` (centres undefined), the logD in [3] turned out to be 2.22.

As to `COC(=O)c1c(C)[nH]c(-c2ncccc2Cl)c1C(=O)OC`, the logP – broadly, the decadic logarithm of the partition coefficient of the neutral form, usually between octanol and water – in [4] turned out to be 1.51.

`CC(C)(C)C(O)C(Oc1ccc(Cl)cc1)n1cncn1` (centres undefined) showed a logP of 3.05.

`O=C1c2c(O)cc(O)cc2O[C@H](c2ccc(O)c(O)c2)[C@H]1O` showed a logP in data set [5] of 1.4.

`CC(=O)c1cc(C(C)(C)C)ccc1OCC(O)CN` (centres undefined) displayed a logP in data set [6] of 0.38.

Regarding `COP(=O)(OC)C(=O)Nc1ccn(C2CSC(COC(=O)P(=O)(OC)OC)O2)c(=O)n1` (centres undefined), the logD in data set [7] came to 0.72.

`Nc1ccc(S(=O)(=O)Nc2ccnn2-c2ccccc2)cc1` came in with a logP in [5] of 1.35.

In [8], `CC(NC(=O)N(CCCl)N=O)C(=O)NC1CC(C)(C)N(O)C(C)(C)C1` (centres undefined) gave a logP of 1.28.

Turning to `O=C1c2ccccc2C(=O)c2c(O)cccc21`, in data set [9], the logP is 3.52.

In the case of `c1ccc2c(c1)-c1cccc3cccc-2c13`, the logP in data set [9] stood at 5.15.

In turn, `Cc1nonc1-c1ccc(OCCCc2c[nH]cn2)cc1` yielded a logP in [10] of 2.92.

Take `O=C1CN(O)C(c2ccccc2)=c2cc(Cl)ccc2=N1`: in data set [11] (pH 4.0), the logD was found to be 1.49.

In turn, `O=C(O)Cc1ccc(OCc2ccccc2)cc1` displayed a logD in [12] of 2.85.

Turning to `CCCCCc1onc(C)c1N=C1C=C(O)C(=O)c2ccccc21`, the lipophilicity (logP) in data set [13] was 3.25.

Molecule `CC(C)CC(O)C(O)C(CC1CCCCCC1)NC(=O)CN` (centres undefined) yielded a log partition coefficient (logP) in data set [14] of 1.52.

In data set [2], `Nc1ccn([C@@H]2O[C@H](COC(=O)c3ccccc3)[C@@H](O)[C@@H]2O)c(=O)n1` registered a logD of 0.5.

Take `COc1ccc(C(=O)CSc2ccccc2)cc1`: the logP in [15] came to 2.2.

In [16], `CCN(CC)C(=O)C1C2CC3C(OC(=O)C31)C2O` (centres undefined) showed a lipophilicity (logP) of 0.15.

With `NS(=O)(=O)c1ccc(-n2cc(-c3ccccc3)nn2)cc1`, the logP in data set [17] was found to be 2.3.

The molecule `O=C(NC1CCN(CCO)CC1)c1ccc(I)cc1` registered a logP in [18] of 1.93.

For the molecule `CN1C(=O)CCC(N2C(=O)c3ccccc3C2=O)C1=O` (centres undefined), in data set [19], the logD was 1.15.

In turn, `C=C(c1ccccc1OCCCCCO)n1ccnc1` registered a logP in data set [20] of 2.89.

With `N#Cc1ccc(OCC2CCN(CCF)CC2)cc1`, the logP in data set [21] amounted to 2.8.

In data set [16], `CCN(CC)C(=O)[C@@H]1[C@@H](C(=O)N(CC)CC)[C@H]2C=C[C@@H]1C2` came in with a lipophilicity (logP) of 1.16.

The molecule `CCOP(=S)(Oc1ccccc1)c1ccccc1` (centres undefined) returned a logD in [3] of 1.79.

For the molecule `CC(C(=O)O)c1cccc(C(=O)c2ccccc2)c1` (centres undefined), the logD in data set [22] came to 3.12.

Regarding `Cc1nc(NCCN)c(C#N)cc1-c1ccncc1`, in [23], the logP is 1.91.

Turning to `CCN(CC)CCOC(=O)c1ccc(N)cc1Cl`, the logP in data set [24] is 2.86.

Take `CCCCCN1C(=O)CCC(N2C(=O)c3ccccc3C2=O)C1=O` (centres undefined): the pH-dependent lipophilicity (logD) in [19] came out at 3.01.

On to `CC(=O)c1cc(C(C)C)ccc1OCC(O)CN` (centres undefined), for which the logP in [6] was found to be 0.1.

Take `NS(=O)(=O)c1ccc(-c2cn([C@@H]3O[C@H](CO)[C@@H](O)[C@H](O)[C@H]3O)nn2)cc1`: the logP in data set [17] is -0.1.

In data set [4], `COC(=O)c1c(C)[nH]c(-c2cc(Cl)ccn2)c1C(=O)OC` came in with a logP of 2.63.

In data set [21], `N#Cc1ccc(OCC2CCN(CCCF)CC2)cc1` had a logP of 2.8.

In data set [25], `CCCC(=O)OCOc1ccccc1C(=O)NCN1CCOCC1` showed a logD of 1.34.

For `C=CCOc1ccccc1C(=C)n1ccnc1`, the logP in data set [20] worked out at 2.74.

In data set [12], `COc1cc(CC(=O)O)ccc1OCCCC(C)C` showed a logD of 3.3.

As for `CC(=O)OCOc1ccccc1C(=O)NCN1CCOCC1`, the logD in data set [25] was 0.27.

With `CCCCc1c(C)oc(=O)c(CCCC)c1O`, the logP in data set [26] is 0.79.

As for `NC(=O)c1c(-c2ccc(OCCCc3c[nH]cn3)cc2)no[n+]1[O-]`, the logP in data set [10] was found to be 1.57.

Consider `COc1cc(Cc2cnc(N)nc2N)cc(OC)c1Oc1ccc(N)cc1`, for which, in [27], the log distribution coefficient (logD) is 0.9.

Take `CCCC(=O)OCn1cnc(CSCCNC(=NC#N)NC)c1C`: the log distribution coefficient (logD) in data set [28] is 1.6.

Consider `CN(C(=O)CCC(N)=O)c1ccc(S(=O)(=O)N(C)C)cc1`, for which the logP in [29] was -0.56.

`O=C1CN=C(c2ccccn2)c2cc(Br)ccc2N1` gave a logP in data set [11] of 2.05.

Molecule `O=C(NC1CCN(CCF)CC1)c1ccc(I)cc1` gave a log partition coefficient (logP) in [18] of 2.57.

As to `Cc1noc(C)c1NC1=CC(=O)C(=O)c2ccccc21`, the logP in data set [13] came to 1.51.

The molecule `CN1CCN(c2ncc(-c3ccncc3)cc2C#N)CC1` showed a log partition coefficient (logP) in data set [23] of 2.96.

`CCCCC(C#N)(Cn1cncn1)c1ccc(Cl)cc1` (centres undefined) registered a logP of 3.16.

As to `CCCCCC(C=O)(CCCC)c1oc(=O)c(CCCC)c(O)c1CCCC` (centres undefined), in data set [26], the logP turned out to be 1.52.

`CNC(=NC#N)NCCSCc1ncn(COC(=O)C(C)(C)C)c1C` registered a logD in data set [28] of 1.81.

Molecule `CC1(C)CC(NC(=O)CNC(=O)N(CCCl)N=O)CC(C)(C)N1O` had a logP in data set [8] of 1.23.

In turn, `Cc1ccc(C(c2ccc(C)cc2)C(Cl)(Cl)Cl)cc1` gave a logP in data set [30] of 3.57.

Consider `CC(C)CC(O)C(O)C(N)NC1CCCCC1` (centres undefined), for which the log partition coefficient (logP) in data set [14] is 1.86.

Regarding `Cc1ccc(C(c2ccc(Cl)cc2)C(Cl)(Cl)Cl)cc1` (centres undefined), the logP in data set [30] was determined as 4.47.

In turn, `CCCCCC(=O)N(C)c1ccc(S(=O)(=O)N(C)C)cc1` registered a logP in [29] of 2.16.

`CCCCCCCCc1ccncc1` gave a logP in data set [31] of 5.42.

Molecule `Cc1ccc(C(=O)c2ccc(CC(=O)O)n2C)cc1` had a log distribution coefficient (logD) in data set [22] of 2.79.

`CCCNC(C)C(=O)Nc1ccccc1C` (centres undefined) showed a logP in data set [24] of 2.11.

On to `COc1cc(Cc2cnc(N)nc2N)cc(OC)c1C`, for which the logD in data set [27] is 2.14.

Consider `CCCCCCCCCc1ccncc1`, for which the logP in data set [31] was found to be 6.11.

Molecule `Cc1ccc(SCC(=O)c2ccc(C)cc2)cc1` came in with a log partition coefficient (logP) in data set [15] of 3.19.

Consider `CCOP(=O)(CC(=O)Nc1ccn(C2CSC(CO)O2)c(=O)n1)OCC` (centres undefined), for which the logD in data set [7] was 0.99.
